Reference: patent publication US20150315188A1, “COMPOUNDS AND METHODS FOR TREATMENT OF HYPERTENSION” (MEDIVATION TECHNOLOGIES, INC., priority 2012, published 2015)

Tests used:
[1] = biological target: T1, Human adrenergic α2A receptor (Homo sapiens, UniProt P08913); assay: Radioligand binding, adrenergic α2A (Protocol Group A); set-up: expressed in transfected cells; host or cells: insect Sf9 cells; details: 0.1 μM compound, [3H]MK-912, read-out: percent inhibition of specific binding, Adrenergic α2A
T1 sequence (P08913 1-465): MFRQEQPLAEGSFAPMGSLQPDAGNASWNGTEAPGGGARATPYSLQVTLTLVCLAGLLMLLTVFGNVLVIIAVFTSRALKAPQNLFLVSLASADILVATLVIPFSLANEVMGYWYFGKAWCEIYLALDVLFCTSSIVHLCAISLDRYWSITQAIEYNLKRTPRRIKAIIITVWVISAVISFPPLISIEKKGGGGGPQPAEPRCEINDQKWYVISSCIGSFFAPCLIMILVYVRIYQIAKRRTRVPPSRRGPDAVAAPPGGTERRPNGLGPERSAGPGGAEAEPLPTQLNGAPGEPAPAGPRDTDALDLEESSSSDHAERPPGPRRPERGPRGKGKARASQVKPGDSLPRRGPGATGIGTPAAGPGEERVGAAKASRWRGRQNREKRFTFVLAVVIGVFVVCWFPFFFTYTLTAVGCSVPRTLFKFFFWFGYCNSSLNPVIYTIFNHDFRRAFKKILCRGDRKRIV
Procedure: To evaluate in radioligand binding assays the activity of compounds of the invention, human recombinant adrenergic α2A receptor expressed in insect Sf9 cells (Uhlen, S. et al, J. Pharmacol. Exp. Ther. 271:1558, 1994) in a modified Tris-HCl buffer (50 mM Tris-HCl, pH 7.4, 12.5 mM MgCl2, 2 mM EDTA) was used. Compounds of invention were incubated with 1 nM [^3H]MK-912 for 60 min at 25° C. MK912 is (2S-trans)-1,3,4,5′,6,6′,7,12b-octahydro-1′,3′-dimethyl-spiro[2H-benzofuro[2,3-a]quinolizine-2,4′(1′H)-pyrimidin]-2′(3′H)-one hydrochloride. Non-specific binding was estimated in the presence of 10 μM WB-4101 (2-(2,6-Dimethoxyphenoxyethyl)aminomethyl-1,4-benzodioxane hydrochloride). Receptor proteins were filtered and washed, the filters were then counted to determine [^3H]MK-912 specifically bound. Compounds were screened at 1 μM or lower, using 1% DMSO as vehicle. Compounds of the invention were tested in this biochemical assay and percent inhibition of specific binding was determined. Biochemical assay results are presented as the percent inhibition of specific binding in Table B1a.

[2] = biological target: T2, rat adrenergic α1B receptor (Rattus norvegicus, UniProt P15823); assay: Radioligand binding, adrenergic α1B (Protocol Group A); details: 0.1 μM compound, [3H]Prazosin, read-out: percent inhibition of specific binding, Adrenergic α1B
T2 construct: rat adrenergic α1B receptor obtained from Wistar Rat liver; from tissue; host or cells: Wistar rat liver
T2 sequence (P15823 1-515): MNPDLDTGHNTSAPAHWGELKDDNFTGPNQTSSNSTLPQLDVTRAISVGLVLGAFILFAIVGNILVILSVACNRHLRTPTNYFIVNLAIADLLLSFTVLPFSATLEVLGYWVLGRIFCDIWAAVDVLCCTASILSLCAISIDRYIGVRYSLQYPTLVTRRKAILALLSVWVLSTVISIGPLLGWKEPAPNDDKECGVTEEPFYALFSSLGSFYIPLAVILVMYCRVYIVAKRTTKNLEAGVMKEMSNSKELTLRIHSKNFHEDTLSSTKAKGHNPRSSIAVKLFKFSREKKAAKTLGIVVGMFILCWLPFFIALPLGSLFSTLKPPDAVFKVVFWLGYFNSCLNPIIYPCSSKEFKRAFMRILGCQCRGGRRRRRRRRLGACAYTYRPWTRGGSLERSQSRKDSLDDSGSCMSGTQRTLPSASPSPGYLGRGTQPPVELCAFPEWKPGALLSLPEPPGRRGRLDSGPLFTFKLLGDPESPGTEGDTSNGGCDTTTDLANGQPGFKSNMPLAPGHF
Procedure: To evaluate in radioligand binding assays the activity of compounds of the invention, rat adrenergic α1B receptor obtained from Wistar Rat liver (Garcia-S'ainz, J. et al, Biochem. Biophys. Res. Commun. 186:760, 1992; Michel, A. et al, Br. J. Pharmacol. 98:883, 1989) in a modified Tris-HCl buffer (50 mM Tris-HCl buffer, pH 7.4, 0.5 mM EDTA) was used. Compounds of the invention were incubated with 0.25 nM [^3H]Prazosin for 60 min at 25° C. Non-specific binding was estimated in the presence of 10 μM phentolamine. Receptor proteins were filtered and washed, the filters were then counted to determine [^3H]Prazosin specifically bound. Compounds were screened at 1 μM or lower, using 1% DMSO as vehicle. Compounds of the invention were tested in this biochemical assay and percent inhibition of specific binding was determined. Biochemical assay results are presented as the percent inhibition of specific binding in Table B1a.

[3] = Epimerization of chiral compounds in simulated gastric fluid (SGF); type: physicochemical; details: 24 h
Procedure: Epimerization Method for Studying Chiral Compounds in Simulated Gastric Fluid (SGF) and Stimulated Intestinal Fluid (SIF)
A measured quantity of sample was dissolved in SGF or SIF at the concentration of 1 mg/mL in a volumetric flask and appropriate number of aliquots of this solution were transferred to incubation vials as per the given time points. For the sample of zero hour, the appropriate volume of saturated Bicarbonate solution was added immediately to the sample, and was stirred for 5-10 mins. The compound was extracted in a suitable solvent (e.g. Ethyl acetate), decanting the organic layer. The organic solvent was evaporated, and the residue was dissolved in an appropriate solvent (Methanol/Ethanol), filtered through a 0.22 μm membrane filter and analyzed by chiral HPLC. The remaining aliquots were incubated at different temperatures i.e. 25° C. and 37° C. in a water bath as per the given time points. The respective samples were retrieved from the incubator/Water bath at different time intervals as per the given time points: 90 mins, 4 h, 6 h, 12 h and 24 h, and the same procedure for sample preparation was followed for the zero hour sample.
All the chromatograms were obtained at the specified wavelength, compiled and the curves between Time Vs % Area were plotted.

| inhibition at 0.1 µM [1] [%] | inhibition at 0.1 µM [2] [%] | epimerization ([3]; 25° C.) | epimerization ([3]; 37° C.) [%] | Structure (SMILES) |
| --- | --- | --- | --- | --- |
| 59 | 91 | – | – | Cc1ccc2c(c1)c1c(n2CC(C)(O)c2ccc(F)nc2)CCN2CCCC12 (single isomer, unassigned) [6a] |
| – | – | up to 41.29% | 50.13 | Cc1ccc2c(c1)c1c(n2CC(O)c2ccncc2)CCN2CCCC12 (single isomer, unassigned) [Compound No. 178d] |
| – | – | 2% | 21.39 | Cc1cc(F)c2c(c1)c1c(n2CC(C)(O)c2cccnc2)CCN2CCCC12 (centres unmarked) [Compound No. 79a] |
| 28 | 35 | – | – | Cc1ccc2c(c1)c1c(n2CC(OC(=O)N2CCCC2)c2ccncc2)CCN(C)C1 (single isomer, unassigned) [4b] |
